In patent US10828315B2 (Madrigal Pharmaceuticals, Inc., priority 2013, dated 2020):

test system: HER2; test: HER2 degradation assay with BT-474 cell line (Example 12, FACS); assay type: cell-based, human; settings: not given
Description: HER2 has emerged as a key target for anticancer drugs due to its intrinsic involvement in the phosphatidylinositol-3-kinase-Akt/protein kinase B (PI3K-Akt) and the mitogen-activated protein kinase (MAPK) pathways, both of which suppress apoptosis and promote tumor cell survival, gene transcription, angiogenesis, cellular proliferation, migration, mitosis, and differentiation. The degradation of HER2 is a measure of efficacy of anticancer therapeutics that target Hsp90. Accordingly, the SDC-TRAP molecules of the invention that comprise a binding moiety that binds Hsp90 were tested in the following HER2 degradation assay.
BT-474 cells (human breast cancer cell line ATCC HTB-20) were obtained from ATCC and seeded into 12-well tissue culture plates at 0.2×10^6/1.8 mL/well. […] Each test compound was titrated in 4-fold dilutions from 5 μM to 78 nM with DMSO and 200 μL of the titration was added to each well of the cell plate. The DMSO final concentration was 0.2%. Cells were incubated overnight at 37° C. in 5% CO2.
Media was decanted from the plate, cells were washed 1× in PBS. 400 μL trypsin (EDTA) per well was added, and the cells were incubated for 2 to 3 minutes. Cells were collected into FACS tubes containing 1 ml culture medium to neutralize the trypsin and were centrifuged for 5 minutes at 1200 rpm. Supernatant was decanted and the cells were resuspended in 5 μL FITC (anti HER2/nu)/200 μL staining buffer (1×PBS+1% FBS+0.05% Sodium Azide)/tube. Controls were 5 μL IgG isotype control and staining buffer only. Tubes were incubated for 30 minutes in the dark at room temperature. 1 mL staining buffer was added to each tube and the tubes were centrifuged for 6 minutes at 1200 rpm. The supernatant was decanted and 300 μL staining buffer was added to each tube, which was store at 4° C. fpr FACS (cytometer) analysis. The cytometer readout was normalized and the potency of each compound is evaluated with IC50 calculated with XLfit™ software.

Row | SMILES | IC50
1 | CCc1c2c(nc3ccc(OC(=O)N4CCN(c5ccc(-n6c(O)nnc6-c6cc(C(C)C)c(O)cc6O)cn5)CC4)cc13)-c1cc3c(c(=O)n1C2)COC(=O)[C@]3(O)CC [SDC-TRAP-0090, (S)-4,11-diethyl-4-hydroxy-3,14-dioxo-3,4,12,14-tetrahydro-1H-pyrano[3′,4′:6,7]indolizino[1,2-b]quinolin-9-yl 4-(5-(3-(2,4-dihydroxy-5-isopropylphenyl)-5-hydroxy-4H-1,2,4-triazol-4-yl)pyridin-2-yl)piperazine-1-carboxylate] | 4.6 µM
2 | CCc1c2c(nc3ccc(O)cc13)-c1cc3c(c(=O)n1C2)COC(=O)[C@@]3(CC)OC(=O)N1CCN(c2ccc(-n3c(O)nnc3-c3cc(C(C)C)c(O)cc3O)cn2)CC1 [SDC-TRAP-0091, (S)-4,11-diethyl-9-hydroxy-3,14-dioxo-3,4,12,14-tetrahydro-1H-pyrano[3′,4′:6,7]indolizino[1,2-b]quinolin-4-yl 4-(5-(3-(2,4-dihydroxy-5-isopropylphenyl)-5-hydroxy-4H-1,2,4-triazol-4-yl)pyridin-2-yl)piperazine-1-carboxylate] | > 5 µM
3 | CCc1c2c(nc3ccc(O)cc13)-c1cc3c(c(=O)n1C2)COC(=O)[C@@]3(CC)OC(=O)N1CCC(N2Cc3ccc(-n4c(O)nnc4-c4cc(C(C)C)c(O)cc4O)cc3C2)CC1 [SDC-TRAP-0092, (S)-4,11-diethyl-9-hydroxy-3,14-dioxo-3,4,12,14-tetrahydro-1H-pyrano[3′,4′:6,7]indolizino[1,2-b]quinolin-4-yl 4-(5-(3-(2,4-dihydroxy-5-isopropylphenyl)-5-hydroxy-4H-1,2,4-triazol-4-yl)isoindolin-2-yl)piperidine-1-carboxylate] | 4.71 µM
4 | CCc1c2c(nc3ccc(OC(=O)N4CCC(c5nc6cc(-n7c(O)nnc7-c7cc(C(C)C)c(O)cc7O)ccc6n5C)CC4)cc13)-c1cc3c(c(=O)n1C2)COC(=O)C3(O)CC (stereo not drawn) [SDC-TRAP-0095, 4,11-diethyl-4-hydroxy-3,14-dioxo-3,4,12,14-tetrahydro-1H-pyrano[3′,4′:6,7]indolizino[1,2-b]quinolin-9-yl 4-(5-(3-(2,4-dihydroxy-5-isopropylphenyl)-5-hydroxy-4H-1,2,4-triazol-4-yl)-1-methyl-1H-benzo[d]imidazol-2-yl)piperidine-1-carboxylate] | > 5 µM
5 | CCc1c2c(nc3ccc(O)cc13)-c1cc3c(c(=O)n1C2)COC(=O)C3(CC)OC(=O)C1CCN(C(=O)Cc2ccc(-n3c(O)nnc3-c3cc(C(C)C)c(O)cc3O)cc2)CC1 (stereo not drawn) [SDC-TRAP-0097, 4,11-diethyl-9-hydroxy-3,14-dioxo-3,4,12,14-tetrahydro-1H-pyrano[3′,4′:6,7]indolizino[1,2-b]quinolin-4-yl 1-(2-(4-(3-(2,4-dihydroxy-5-isopropylphenyl)-5-hydroxy-4H-1,2,4-triazol-4-yl)phenyl)acetyl)piperidine-4-carboxylate] | > 5 µM
6 | CCNC(=O)c1nnc(-c2cc(C(C)C)c(O)cc2O)n1-c1ccc(CN2CCC(C(=O)N(C)CCC(=O)OC3(CC)C(=O)OCc4c3cc3n(c4=O)Cc4c-3nc3ccc(O)cc3c4CC)CC2)cc1 (stereo not drawn) [SDC-TRAP-0100, 4,11-Diethyl-9-hydroxy-3,14-dioxo-3,4,12,14-tetrahydro-1H-pyrano[3′,4′:6,7]indolizino[1,2-b]quinolin-4-yl 3-(1-(4-(3-(2,4-dihydroxy-5-isopropylphenyl)-5-(ethylcarbamoyl)-4H-1,2,4-triazol-4-yl)benzyl)-N-methylpiperidine-4-carboxamido)propanoate] | 0.08 µM
7 | CCc1c2c(nc3ccc(OC(=O)N4CCC(N5CCN(c6ccc(-n7c(O)nnc7-c7cc(C(C)C)c(O)cc7O)cc6)CC5)CC4)cc13)-c1cc3c(c(=O)n1C2)COC(=O)C3(O)CC (stereo not drawn) [SDC-TRAP-0101, 4,11-diethyl-4-hydroxy-3,14-dioxo-3,4,12,14-tetrahydro-1H-pyrano[3′,4′:6,7]indolizino[1,2-b]quinolin-9-yl 4-(4-(4-(3-(2,4-dihydroxy-5-isopropylphenyl)-5-hydroxy-4H-1,2,4-triazol-4-yl)phenyl)piperazin-1-yl)piperidine-1-carboxylate] | 0.28 µM
8 | CCc1c2c(nc3ccc(O)cc13)-c1cc3c(c(=O)n1C2)COC(=O)C3(CC)OC(=O)C1CCN(C(=O)CN2CCN(c3ccc(-n4c(O)nnc4-c4cc(C(C)C)c(O)cc4O)cc3)CC2)CC1 (stereo not drawn) [SDC-TRAP-0111, 4,11-Diethyl-9-hydroxy-3,14-dioxo-3,4,12,14-tetrahydro-1H-pyrano[3′,4′:6,7]indolizino[1,2-b]quinolin-4-yl 1-(2-(4-(4-(3-(2,4-dihydroxy-5-isopropylphenyl)-5-hydroxy-4H-1,2,4-triazol-4-yl)phenyl)piperazin-1-yl)acetyl)piperidine-4-carboxylate] | > 5 µM
9 | CCc1c2c(nc3ccc(OC(=O)N(C)CCNC(=O)c4nnc(-c5cc(C(C)C)c(O)cc5O)n4-c4cccnc4)cc13)-c1cc3c(c(=O)n1C2)COC(=O)C3(O)CC (stereo not drawn) [SDC-TRAP-0112, 4,11-Diethyl-4-hydroxy-3,14-dioxo-3,4,12,14-tetrahydro-1H-pyrano[3′,4′:6,7]indolizino[1,2-b]quinolin-9-yl (2-(5-(2,4-dihydroxy-5-isopropylphenyl)-4-(pyridin-3-yl)-4H-1,2,4-triazole-3-carboxamido)ethyl)(methyl)carbamate] | > 5 µM
10 | CC(C)c1cc(-c2nnc(O)n2-c2ccc(CN3CCN(C(=O)Oc4ccc5c(c4)C[C@@H](CCCCCCCCC[S+]([O-])CCCC(F)(F)C(F)(F)F)[C@@H]4[C@@H]5CC[C@]5(C)[C@@H](O)CC[C@@H]45)CC3)cc2)c(O)cc1O (stereo partly drawn) [SDC-TRAP-0148, (7R,8R,9S,13S,14S,17S)-17-hydroxy-13-methyl-7-(9-((4,4,5,5,5-pentafluoropentyl)sulfinyl)nonyl)-7,8,9,11,12,13,14,15,16,17-decahydro-6H-cyclopenta[a]phenanthren-3-yl 4-(4-(3-(2,4-dihydroxy-5-isopropylphenyl)-5-hydroxy-4H-1,2,4-triazol-4-yl)benzyl)piperazine-1-carboxylate] | 3.04 µM
11 | Cc1cc(C(=O)N2CCN(Cc3ccc(-n4c(O)nnc4-c4cc(C(C)C)c(O)cc4O)cc3F)CC2)cc(C)c1OC(=O)Nc1cccc2c1CN(C1CCC(=O)NC1=O)C2=O (stereo not drawn) [SDC-TRAP-0168, 4-(4-(4-(3-(2,4-dihydroxy-5-isopropylphenyl)-5-hydroxy-4H-1,2,4-triazol-4-yl)-2-fluorobenzyl)piperazine-1-carbonyl)-2,6-dimethylphenyl (2-(2,6-dioxopiperidin-3-yl)-1-oxoisoindolin-4-yl)carbamate] | 0.276 µM

same assay, conditions: BT-474 cells, overnight

Row | SMILES | IC50
12 | CCOC(=O)c1nnc(-c2cc(C(C)C)c(O)cc2O)n1-c1ccc(CN2CCC(C(=O)N[C@H]3C[C@H](O[C@H]4C[C@](O)(C(=O)CO)Cc5c(O)c6c(c(O)c54)C(=O)c4c(OC)cccc4C6=O)O[C@@H](C)[C@H]3O)CC2)cc1 [SDC-TRAP-0142, ethyl-5-(2,4-dihydroxy-5-isopropylphenyl)-4-(4-((4-(((2S,3S,4S,6R)-3-hydroxy-2-methyl-6-(((1S,3S)-3,5,12-trihydroxy-3-(2-hydroxyacetyl)-10-methoxy-6,11-dioxo-1,2,3,4,6,11-hexahydrotetracen-1-yl)oxy)tetrahydro-2H-pyran-4-yl)carbamoyl)piperidin-1-yl)methyl)phenyl)-4H-1,2,4-triazole-3-carboxylate] | > 10 µM
